≈ marks a conversion by molar mass, not a printed value. Where “and” joins values, the source holds several entries; their conditions need not be identical. Equal entries are not always repeated. Calls of active or inactive are those of the source. The calls are words filed in the database; no cut-off is given here.
Experiments:
Staphylococcus aureus [1] = test: Inhibition of EtBr efflux in ciprofloxacin-resistant Staphylococcus aureus 1199B overexpressing norA and harboring A116E grlA mutant assessed as reduction in fluorescence intensity at 50 uM measured for 5 mins by microplate reader analysis relative to control; format: functional
Staphylococcus aureus [2] = test: Inhibition of EtBr efflux in ciprofloxacin-resistant Staphylococcus aureus 1199B overexpressing norA and harboring A116E grlA mutant assessed as reduction in fluorescence intensity at 10 uM measured for 5 mins by microplate reader analysis relative to control; format: functional
Staphylococcus aureus [3] = test: Antibacterial activity against ciprofloxacin-resistant Staphylococcus aureus 1199B overexpressing norA and harboring A116E grlA mutant assessed as inhibition of bacterial growth by broth microdilution method; format: functional
[4] = Cytotoxicity against human THP-1 cells assessed as cell viability at 12.5 ug/ml incubated for 24 hrs by MTT assay relative to control; format: toxicity, cell-based; details: at 12.5 µg/mL, read-out: Activity
Staphylococcus aureus [5] = test: Synergistic antibacterial activity against Staphylococcus aureus K2378 overexpressing norA assessed as fold reduction in ciprofloxacin MIC at 0.2 to 12.5 ug/ml by checkerboard assay; format: functional; details: dose 0.2-12.5 µg/ml
[6] = Cytotoxicity against human A549 cells assessed as cell viability at 3.13 ug/ml incubated for 24 hrs by MTT assay relative to control; format: toxicity, cell-based; details: at 3.13 µg/mL, read-out: Activity
Staphylococcus aureus [7] = test: Antibacterial activity against Staphylococcus aureus K2378 harbouring norA promoting and coding region assessed as inhibition of bacterial growth by broth microdilution method; format: functional
Staphylococcus aureus [8] = test: Synergistic antibiofilm activity against wild type Staphylococcus aureus 1199 assessed as biofilm eradication by measuring fold reduction in ciprofloxacin MBEC at 3.13 ug/ml incubated for 24 hrs by Calgary biofilm device assay; format: functional; details: dose 3.13 µg/ml
[9] = Cytotoxicity against human THP-1 cells assessed as cell viability incubated for 24 hrs by MTT assay; format: toxicity, cell-based
Staphylococcus aureus [10] = test: Synergistic antibiofilm activity against wild type Staphylococcus aureus 1199 assessed as biofilm eradication by measuring ciprofloxacin MBEC at 3.13 ug/ml incubated for 24 hrs by Calgary biofilm device assay; format: functional; details: dose 3.13 µg/ml
Staphylococcus aureus [11] = test: Synergistic antibiofilm activity against Staphylococcus aureus 1199B overexpressing norA and harboring A116E grlA mutant assessed as biofilm eradication by measuring ciprofloxacin MBEC at 3.13 ug/ml incubated for 24 hrs by Calgary biofilm device assay; format: functional; details: dose 3.13 µg/ml
Staphylococcus aureus [12] = test: Antibacterial activity against ciprofloxacin-susceptible wild type Staphylococcus aureus 1199 assessed as inhibition of bacterial growth by broth microdilution method; format: functional
Staphylococcus aureus [13] = test: Synergistic antibacterial activity against Staphylococcus aureus 1199B overexpressing norA and harboring A116E grlA mutant assessed as eight fold minimum potentiating concentration incubated in presence of ciprofloxacin by checkerboard assay; format: functional
Staphylococcus aureus [14] = test: Antibacterial activity against norA deleted Staphylococcus aureus K1902 assessed as inhibition of bacterial growth by broth microdilution method; format: functional
Staphylococcus aureus [15] = test: Synergistic antibiofilm activity against Staphylococcus aureus 1199B overexpressing norA and harboring A116E grlA mutant assessed as biofilm eradication by measuring fold reduction in ciprofloxacin MBEC at 3.13 ug/ml incubated for 24 hrs by Calgary biofilm device assay; format: functional; details: dose 3.13 µg/ml
[16] = Cytotoxicity against human THP-1 cells assessed as cell viability at 3.13 ug/ml incubated for 24 hrs by MTT assay relative to control; format: toxicity, cell-based; details: at 3.13 µg/mL, read-out: Activity
Staphylococcus aureus [17] = test: Synergistic antibacterial activity against ciprofloxacin-resistant Staphylococcus aureus 1199B overexpressing norA and harboring A116E grlA mutant assessed as fold reduction in ciprofloxacin MIC at 6.25 uM by broth microdilution method; format: functional
[18] = Cytotoxicity against human A549 cells assessed as cell viability at 12.5 ug/ml incubated for 24 hrs by MTT assay relative to control; format: toxicity, cell-based; details: at 12.5 µg/mL, read-out: Activity
Staphylococcus aureus [19] = test: Synergistic antibacterial activity against Staphylococcus aureus 1199B overexpressing norA and harboring A116E grlA mutant assessed as four fold minimum potentiating concentration incubated in presence of ciprofloxacin by checkerboard assay; format: functional
Staphylococcus aureus [20] = test: Synergistic antibacterial activity against wild type Staphylococcus aureus 1199 assessed as fold reduction in ciprofloxacin MIC at >=3.13 ug/ml by checkerboard assay; format: functional; details: dose >= 3.13 µg/ml
Staphylococcus aureus [21] = test: Synergistic antibacterial activity against Staphylococcus aureus 1199B overexpressing norA and harboring A116E grlA mutant assessed as sixteen fold minimum potentiating concentration incubated in presence of ciprofloxacin by checkerboard assay; format: functional
Staphylococcus aureus [22] = test: (§1) Potentiation of ciprofloxacin-induced antibacterial activity against Staphylococcus aureus 1199B overexpressing norA and harboring A116E grlA mutant assessed as time for post-antibiotic effect at 6.25 ug/ml preincubated for 1 hr followed by compound washout and measured after 5 hrs; format: functional; details: dose 6.25 µg/ml
Staphylococcus aureus [23] = test: as §1, with “as” for “as time for”, “effect by measuring log reduction in colony forming unit per ml” for “effect”; format: functional; details: dose 6.25 µg/ml
Staphylococcus aureus [24] = test: Synergistic bactericidal activity against Staphylococcus aureus 1199B overexpressing norA and harboring A116E grlA mutant assessed as reduction in bacterial count by measuring log reduction in colony forming count per ml at 6.25 ug/ml incubated for 4 hrs in presence of ciprofloxacin at 0.25 to 1 times MIC by time kill assay; format: functional; details: dose 6.25 µg/ml
Staphylococcus aureus [25] = test: Synergistic antibiofilm activity against norA deleted Staphylococcus aureus K1902 assessed as biofilm eradication by measuring ciprofloxacin MBEC at 3.13 ug/ml incubated for 24 hrs by Calgary biofilm device assay; format: functional; details: dose 3.13 µg/ml
Staphylococcus aureus [26] = test: Synergistic bactericidal activity against Staphylococcus aureus 1199B overexpressing norA and harboring A116E grlA mutant assessed as reduction in bacterial count at 6.25 ug/ml incubated for 6 hrs in presence of ciprofloxacin at MIC by time kill assay; format: functional, organism-based; details: dose 6.25 µg/ml

In the case of `CCCOc1ccc(-c2cc(OCCN3CCCCCC3)c3cc(OC(F)(F)F)ccc3n2)cc1`, the inhibition (Staphylococcus aureus [1]) is reported as 84.9%, the inhibition (Staphylococcus aureus [2]) is reported as 70.4% and the MIC (Staphylococcus aureus [3]) is reported as > 512 µM.
Work on `CCCOc1ccc(-c2cc(OCCN(CC)CC)c3cc(SC)ccc3n2)cc1` yielded an inhibition (Staphylococcus aureus [1]) of 53.3%.
`CCCOc1ccc(-c2cc(OCCN(CC)CC)c3cc(C#N)ccc3n2)cc1` gave an inhibition (Staphylococcus aureus [1]) of 77.8%.
With `CCCOc1ccc(-c2cc(OCCN3CCCCCC3)c3cc(SC)ccc3n2)cc1` the inhibition (Staphylococcus aureus [1]) was 81.2%, the viability at 24 h, 12.5 ug/ml [4] was 19.9% and the “fold change (FC)” value (Staphylococcus aureus [5]) was 4. The viability at 24 h, 3.13 ug/ml [6] was 100%, the inhibition (Staphylococcus aureus [2]) was 81.1% and the MIC (Staphylococcus aureus [7]) was > 50 µg/mL. The “fold change (FC)” value (Staphylococcus aureus [8]) was 286, the CC50 at 24 h [9] was > 3.13 µg/mL and the MBEC (Staphylococcus aureus [10]) was 0.07 µg/mL. For the same compound, the MBEC (Staphylococcus aureus [11]) was 1.25 µg/mL, the MIC (Staphylococcus aureus [12]) was > 50 µg/mL and the MPC (Staphylococcus aureus [13]) was 1.56 µg/mL. The MIC (Staphylococcus aureus [14]) was > 50 µg/mL, the “fold change (FC)” value (Staphylococcus aureus [15]) was 512 and the viability at 24 h, 3.13 ug/ml [16] was 68.8%. For the same compound, the “fold change (FC)” value (Staphylococcus aureus [17]) was 8, the viability at 24 h, 12.5 ug/ml [18] was 100% and the MIC (Staphylococcus aureus [3]) was > 50 µg/mL and 69.5 µM.
Compound `CCCOc1ccc(-c2cc(OCCN3CCCCC3)c3cc(Nc4ccccc4)ccc3n2)cc1` has an inhibition (Staphylococcus aureus [1]) of 84.2%, an MPC (Staphylococcus aureus [19]) of 0.39 µg/mL and an inhibition (Staphylococcus aureus [2]) of 50.1%. The “fold change (FC)” value (Staphylococcus aureus [20]) was 4, the MIC (Staphylococcus aureus [12]) was > 50 µg/mL and the MPC (Staphylococcus aureus [21]) was 0.78 µg/mL. For the same compound, the “fold change (FC)” value (Staphylococcus aureus [17]) was 8 and the MIC (Staphylococcus aureus [3]) was > 50 µg/mL and > 519 µM.
`CCCOc1ccc(-c2cc(OCCN3CCCCC3)c3cc(C#N)ccc3n2)cc1` gave an inhibition (Staphylococcus aureus [1]) of 77.8%.
With `CCCOc1ccc(-c2cc(OCCN3CCCCC3)c3cc(Br)ccc3n2)cc1` the inhibition (Staphylococcus aureus [1]) was 71.6%.
Compound `CCCOc1ccc(-c2cc(OCCN(CC)CC)c3cc(OCCC)ccc3n2)cc1` has an inhibition (Staphylococcus aureus [1]) of 67.1%.
Work on `CCCOc1ccc(-c2cc(OCCN3CCCCCC3)c3cc(OC(F)F)ccc3n2)cc1` yielded an inhibition (Staphylococcus aureus [1]) of 70.7%.
Work on `CCCOc1ccc(-c2cc(OCCN(CC)CC)c3cc(Br)ccc3n2)cc1` yielded an inhibition (Staphylococcus aureus [1]) of 63.4%.
In the case of `CCCOc1ccc(-c2cc(OCCN3CCCCC3)c3cc(OC(F)F)ccc3n2)cc1`, the inhibition (Staphylococcus aureus [1]) is reported as 80.2%, the viability at 24 h, 12.5 ug/ml [4] is reported as 9.4% and the “fold change (FC)” value (Staphylococcus aureus [5]) is reported as 4. For the same compound, the viability at 24 h, 3.13 ug/ml [6] was 100%, the MPC (Staphylococcus aureus [19]) was 0.39 µg/mL and the inhibition (Staphylococcus aureus [2]) was 85%. For the same compound, the MIC (Staphylococcus aureus [7]) was 25 µg/mL (≈ 54.8 µM), the Time (Staphylococcus aureus [22]) was 1.2 h and the “fold change (FC)” value (Staphylococcus aureus [8]) was 286. For the same compound, the CC50 at 24 h [9] was > 3.13 µg/mL, the MBEC (Staphylococcus aureus [10]) was 0.07 µg/mL and the MBEC (Staphylococcus aureus [11]) was 0.63 µg/mL. The MIC (Staphylococcus aureus [12]) was > 50 µg/mL, the MPC (Staphylococcus aureus [13]) was 0.78 µg/mL and the MIC (Staphylococcus aureus [14]) was 25 µg/mL (≈ 54.8 µM). For the same compound, the “log(activity)” value (Staphylococcus aureus [23]) was 1, the “fold change (FC)” value (Staphylococcus aureus [15]) was 512 and the viability at 24 h, 3.13 ug/ml [16] was 67.7%. For the same compound, the “fold change (FC)” value (Staphylococcus aureus [17]) was “>=8”, the “log(activity)” value (Staphylococcus aureus [24]) was 3 and the MBEC (Staphylococcus aureus [25]) was 40 µg/mL. For the same compound, the viability at 24 h, 12.5 ug/ml [18] was 100%, the MIC (Staphylococcus aureus [3]) was > 50 µg/mL and > 548 µM and the Activity (Staphylococcus aureus [26]) was “Active”.
`CCCOc1ccc(-c2cc(OCCN3CCCCC3)c3cc(OCCC)ccc3n2)cc1` showed an inhibition (Staphylococcus aureus [1]) of 73.9%.
For `CCCOc1ccc(-c2cc(OCCN3CCCCC3)c3cc(OC(F)(F)F)ccc3n2)cc1`, the inhibition (Staphylococcus aureus [1]) was 81.2%, the inhibition (Staphylococcus aureus [2]) was 86.9% and the MIC (Staphylococcus aureus [3]) was > 529 µM.
In the case of `CCCOc1ccc(-c2cc(OCCN3CCCCC3)c3cc(SC)ccc3n2)cc1`, the inhibition (Staphylococcus aureus [1]) is reported as 79.9%, the inhibition (Staphylococcus aureus [2]) is reported as 80.2% and the MIC (Staphylococcus aureus [12]) is reported as > 50 µg/mL. For the same compound, the MPC (Staphylococcus aureus [13]) was 6.25 µg/mL, the “fold change (FC)” value (Staphylococcus aureus [17]) was “>=8” and the MIC (Staphylococcus aureus [3]) was > 50 µg/mL and 71.7 µM.

From ChEMBL document CHEMBL5108024, “New C-6 functionalized quinoline NorA inhibitors strongly synergize with ciprofloxacin against planktonic and biofilm growing resistant Staphylococcus aureus strains” (Eur J Med Chem, 2022)
